Substitutions are numbered along the chain they refer to. Like-named read-outs stand apart in the source and are kept apart here.
Experiments:
[1] = Mouse liver microsome stability; type: in vitro ADME; details: 1 μM
Description: (§1) Preincubation mixture 2.5 μL Test Cpd. +75 μL Liver microsomes (human or mouse source) @ 3.33 mg/mL+85 µL of 100 mM potassium phosphate buffer (preincubate for 10 min @ 37° C.). Incubation mixture 62 μL of cofactor (2.85 mM)+Remaining incubation mixture (Incubated for 60 min @ 37° C.). Sample preparation 25 μL incubation mixture+200 μL of acetonitrile containing internal standard+Vortex 5 min @ 1200 rpm+Centrifuge 10 min @ 4000 rpm. Supernatant diluted 2-fold with water and injected on LC-MS/MS.

[2] = Human liver microsome stability; type: in vitro ADME; details: 1 μM
Description: as §1

Human androgen receptors = target: T1, Human androgen receptors (Homo sapiens, UniProt P10275, T878A); test: Biochemical AR LBD antagonism (Eurofins AR radioligand binding assay)
T1 construct: Human androgen receptors obtained from human LNCaP cells were used; host or cells: human LNCaP cells
T1 sequence (P10275 1-920 T878A): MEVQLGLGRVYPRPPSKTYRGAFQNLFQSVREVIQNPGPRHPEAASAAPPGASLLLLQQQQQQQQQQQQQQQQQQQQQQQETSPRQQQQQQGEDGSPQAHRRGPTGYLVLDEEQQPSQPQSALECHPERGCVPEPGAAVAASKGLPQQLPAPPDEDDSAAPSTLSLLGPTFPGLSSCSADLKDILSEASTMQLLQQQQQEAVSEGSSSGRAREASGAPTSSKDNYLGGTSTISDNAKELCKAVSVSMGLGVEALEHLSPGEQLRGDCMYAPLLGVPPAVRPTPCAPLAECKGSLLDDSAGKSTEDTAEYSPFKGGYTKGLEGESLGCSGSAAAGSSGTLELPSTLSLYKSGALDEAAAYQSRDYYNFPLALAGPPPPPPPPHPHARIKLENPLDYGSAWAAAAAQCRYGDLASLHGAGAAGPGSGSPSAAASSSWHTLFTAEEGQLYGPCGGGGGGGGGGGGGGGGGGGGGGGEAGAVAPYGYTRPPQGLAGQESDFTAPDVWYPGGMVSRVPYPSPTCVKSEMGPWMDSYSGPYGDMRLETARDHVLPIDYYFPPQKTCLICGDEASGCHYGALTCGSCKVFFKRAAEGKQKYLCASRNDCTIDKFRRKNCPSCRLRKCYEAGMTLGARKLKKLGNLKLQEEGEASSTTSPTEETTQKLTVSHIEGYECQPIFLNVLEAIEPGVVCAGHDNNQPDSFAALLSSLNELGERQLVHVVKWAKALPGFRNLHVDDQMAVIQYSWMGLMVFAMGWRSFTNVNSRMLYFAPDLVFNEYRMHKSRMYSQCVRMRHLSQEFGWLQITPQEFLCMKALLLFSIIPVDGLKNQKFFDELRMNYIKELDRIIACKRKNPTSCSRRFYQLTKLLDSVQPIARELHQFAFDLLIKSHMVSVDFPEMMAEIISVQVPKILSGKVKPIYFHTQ
Description: Human androgen receptors obtained from human LNCaP cells were used in modified HEPES buffer pH 7.4. A 70 μg‡ aliquot was incubated with 0.5 nM [3H] Methyltrienolone for 20 h at 4° C. Non-specific binding was estimated in the presence of 1 μM testosterone. Receptors were filtered and washed, the filters were then counted to determine [3H] Methyltrienolone specifically bound. Compounds were screened at 10 μM.
Furthermore, as noted earlier, most clinically relevant AR inhibitors target the ligand binding domain (LBD) of the androgen receptor, and these inhibitors can lose efficacy due to point mutations in the LBD. Given that the AR protein contains multiple sub-domains, targeting other domains is an attractive approach for new inhibitors. […] Therefore, the compounds as described herein may be interacting with other subdomains in the AR protein, namely the N-terminal domain.

human AR = target: T2, human AR (Homo sapiens, UniProt P10275); test: Indigo Biosciences AR reporter cell assay (AR inhibition, antagonist mode); type: cell-based; details: for IC50: luciferase reporter cells, 24 hr, EC80 of agonist 5α-dihydro-11-keto testosterone, read-out: AR Inhibition Indigo Cell Based: Avg IC50
T2 construct: Reporter Cells used in these assays expressed a native receptor (AR)
T2 sequence (P10275 1-920): T1 sequence (P10275 1-920 T878A) with A878T
Description: The aim of this study was to evaluate compounds 1-12 and the comparative compounds 1-2 for inhibition activities against human AR. Reporter Cells used in these assays expressed a native receptor (AR). The reporter gene, firefly luciferase, is functionally linked to an upstream receptor-specific genetic response element (GRE). Reporter cells were treated with eight concentrations, starting at 50 μM and following with 3.17-fold dilutions. Single treatment concentration was performed (n=1). Assay performance was validated using the reference antagonist hydroxy flutamide. • Step 1: A suspension of reporter cells was prepared in Cell Recovery Medium (CRM). Reporter cells were first supplemented with 2×-EC80 concentration of the reference agonist, 5α-dihydro-11-keto testosterone, then 100 μl of the Reporter Cell suspension was dispensed into wells of a white 96-well assay plate. • Step 2: Test compound master stocks were diluted in DMSO to generate solutions at ‘500×-concentration’ relative to the final treatment concentration and diluted directly into INDIGO's Compound Screening Medium (CSM; containing charcoal-stripped FBS) to generate ‘2×-concentration’ treatment media. This was diluted into the wells to the final concentration. Assay plates were incubated at 37° C., 5% CO2 and ~70% humidity for 24 hr. • Step 3: Following the incubation period, wells were rinsed once with Live Cell Multiplex (LCM) Buffer, then LCM substrate was added. Following incubation at room temperature for 15 min, LCM substrate was discarded and 100 μL/well of luciferase detection reagent was added. Subsequently, fluorescence was measured to determine the relative number of live cells per assay well. RLU values were quantified after a 10 min incubation period at room temperature to determine nuclear receptor activities.

[3] = Table 5, mouse liver microsomes
[4] = Table 5, human liver microsomes
[5] = Table 3, read-out: Biochemical AR LBD Antagonism: Avg IC50
[6] = Table 6, mouse liver microsomes
[7] = Table 6, human liver microsomes
[8] = Table 4, read-out: Biochemical AR LBD Antagonism: Average IC50

Structure (SMILES)	Mouse LM: Rem @ 60 min [1, 3]	Human LM: Rem @ 60 min [2, 4]	IC50 (Human androgen receptors; [5]) [nM]	IC50 (human AR; Table 1) [nM]	Mouse LM: Rem @ 60 min [1, 6]	Human LM: Rem @ 60 min [2, 7]	IC50 (Human androgen receptors; [8]) [nM]	IC50 (human AR; Table 2) [nM]	times more potent than the racemic mixture (Comparative Compound 1) in the cell-based activity assay (human AR; versus Comparative Compound 1)	times more potent than the S isomer (Comparative Compound 2) in the cell-based activity assay (human AR; versus Comparative Compound 2)
CC(Nc1ccc2nnc(C(F)(F)F)n2n1)c1ccc(F)cc1 (racemic) [Comparative Compound 1, (R, S)—N-(1-(4-fluorophenyl)ethyl)-3-(trifluoromethyl)-[1,2,4]triazolo[4,3-b]pyridazin-6-amine, reference compound]	+++ (>60.1: “+++”)	+++ (>60.1: “+++”)	> 501	51 to 500						
C[C@H](Nc1ccc2nnc(C(F)(F)F)n2n1)c1ccc(F)cc1 [Comparative Compound 2, (S)—N-(1-(4-fluorophenyl)ethyl)-3-(trifluoromethyl)-[1,2,4]triazolo[4,3-b]pyridazin-6-amine, reference compound]			> 501	> 501						
C[C@@H](Nc1ccc2nnc(C(F)(F)F)n2n1)c1ccc(F)cc1 [Compound 1, (R)—N-(1-(4-fluorophenyl)ethyl)-3-(trifluoromethyl)-[1,2,4]triazolo[4,3-b]pyridazin-6-amine]	++ (30.1-60: “++”)	+++ (>60.1: “+++”)	> 501	< 50	++ (30.1-60: “++”)	+++ (>60.1: “+++”)	> 501	< 50	~ 2 times	~ 150 times
C[C@@H](Nc1ccc2nnc(C(F)(F)F)n2n1)c1cc(F)cc(F)c1 [Compound 2, (R)—N-(1-(3,5-difluorophenyl)ethyl)-3-(trifluoromethyl)-[1,2,4]triazolo[4,3-b]pyridazin-6-amine]					+++ (>60.1: “+++”)	+++ (>60.1: “+++”)	> 501	< 50		
CC[C@@H](Nc1ccc2nnc(C(F)(F)F)n2n1)c1ccc(F)cc1 [Compound 3, (R)—N-(1-(4-fluorophenyl)propyl)-3-(trifluoromethyl)-[1,2,4]triazolo[4,3-b]pyridazin-6-amine]					+++ (>60.1: “+++”)	+++ (>60.1: “+++”)	> 501	< 50		
C[C@@H](Nc1ccc2nnc(C(F)(F)F)n2n1)c1ccc(C(F)(F)F)cc1 [Compound 4, (R)-3-(trifluoromethyl)-N-(1-(4-(trifluoromethyl)phenyl)ethyl)-[1,2,4]triazolo[4,3-b]pyridazin-6-amine]					+++ (>60.1: “+++”)	+++ (>60.1: “+++”)		51 to 500		
C[C@H](c1ccc(F)cc1)N(C)c1ccc2nnc(C(F)(F)F)n2n1 [Compound 5, (R)—N-(1-(4-fluorophenyl)ethyl)-N-methyl-3-(trifluoromethyl)-[1,2,4]triazolo[4,3-b]pyridazin-6-amine]					+ (0-30: “+”)	+++ (>60.1: “+++”)	51 to 500	51 to 500		
COc1cc([C@@H](C)Nc2ccc3nnc(C(F)(F)F)n3n2)ccc1F [Compound 6, (R)—N-(1-(4-fluoro-3-methoxyphenyl)ethyl)-3-(trifluoromethyl)-[1,2,4]triazolo[4,3-b]pyridazin-6-amine]					+ (0-30: “+”)	+++ (>60.1: “+++”)	> 501	51 to 500		
COc1cc(Cl)cc([C@@H](C)Nc2ccc3nnc(C(F)(F)F)n3n2)c1 [Compound 7, (R)—N-(1-(3-chloro-5-methoxyphenyl)ethyl)-3-(trifluoromethyl)-[1,2,4]triazolo[4,3-b]pyridazin-6-amine]					+ (0-30: “+”)	+++ (>60.1: “+++”)	51 to 500	51 to 500		
C[C@@H](Nc1ccc2nnc(C(F)(F)F)n2n1)c1cc(Cl)cc(Cl)c1 [Compound 8, (R)—N-(1-(3,5-dichlorophenyl)ethyl)-3-(trifluoromethyl)-[1,2,4]triazolo[4,3-b]pyridazin-6-amine]					+++ (>60.1: “+++”)	+++ (>60.1: “+++”)	> 501	51 to 500		
C[C@@H](Nc1ccc2nnc(C(F)(F)F)n2n1)c1ccc(C#N)cc1 [Compound 9, (R)-4-(1-((3-(trifluoromethyl)-[1,2,4]triazolo[4,3-b]pyridazin-6-yl)amino)ethyl)benzonitrile]								> 501		
C[C@@H](Nc1ccc2nnc(C3CC3)n2n1)c1ccc(F)cc1 [Compound 11, (R)-3-cyclopropyl-N-(1-(4-fluorophenyl)ethyl)-[1,2,4]triazolo[4,3-b]pyridazin-6-amine]								> 501		

Source: patent US20260217716A1, “ANDROGEN RECEPTOR MODULATORS AND METHODS FOR THEIR USE” (Capulus Therapeutics, LLC, priority 2022, published 2026)
